The values that follow come from publication PMC5919688, “Cyclic di-AMP regulation of osmotic homeostasis is essential in Group B Streptococcus” (PLoS Genetics, 2018).

One series concerns the target T1, DacA (rDacA) (Streptococcus agalactiae, UniProt Q8E051).
T1 construct: amino acids 96-243, transmembrane domain deleted, N-terminal 6xHis (pET28a), E. coli Bli5, purified
T1 sequence (Q8E051 96-243): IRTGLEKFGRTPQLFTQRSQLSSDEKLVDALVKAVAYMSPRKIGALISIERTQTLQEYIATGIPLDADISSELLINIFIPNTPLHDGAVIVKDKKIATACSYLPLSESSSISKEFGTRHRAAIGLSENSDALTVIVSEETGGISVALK
In words: RP-HPLC of c-di-AMP formation. The format is biochemical. To be noted: 2.5 uM rDacA, 1 mM ATP, 50 mM Tris pH 8.5, 100 mM NaCl, 10 mM MnCl2, 37 C.

In a further series the target is T2, TrkH (Gbs1639) (Streptococcus agalactiae, UniProt Q8DYA0).
T2 construct: gene SAG1590; full length, N-terminal His tag (detected by Western only with the His tag), expressed in E. coli Bli5, whole-cell extract
T2 sequence (Q8DYA0 1-449): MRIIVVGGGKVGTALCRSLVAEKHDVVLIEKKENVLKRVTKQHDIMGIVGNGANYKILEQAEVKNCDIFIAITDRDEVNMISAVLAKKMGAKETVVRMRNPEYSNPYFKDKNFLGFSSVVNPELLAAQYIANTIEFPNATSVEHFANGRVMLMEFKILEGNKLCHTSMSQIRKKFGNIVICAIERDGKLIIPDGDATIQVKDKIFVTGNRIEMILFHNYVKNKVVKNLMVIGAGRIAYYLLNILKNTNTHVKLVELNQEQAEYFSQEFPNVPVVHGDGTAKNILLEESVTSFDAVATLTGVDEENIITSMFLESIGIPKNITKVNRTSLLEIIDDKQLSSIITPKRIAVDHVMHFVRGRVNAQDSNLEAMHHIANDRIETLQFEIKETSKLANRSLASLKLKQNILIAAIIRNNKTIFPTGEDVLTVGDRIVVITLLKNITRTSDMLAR
In words: DRaCALA, […]-labelled c-di-AMP, whole E. coli extract. The format is binding. To be noted: 1 nM 32P-c-di-AMP, 40 mM Tris pH 7.5, 100 mM NaCl, 10 mM MgCl2, room temperature; labelled compound; competition with 200 uM cold nucleotide.

The target of a further series is T3, OpuCA (Gbs0235) (Streptococcus agalactiae, UniProt Q8E7C0).
T3 construct: full length, N-terminal His-MBP tag (signal only with this tag), expressed in E. coli Bli5, whole-cell extract
T3 sequence (Q8E7C0 1-381): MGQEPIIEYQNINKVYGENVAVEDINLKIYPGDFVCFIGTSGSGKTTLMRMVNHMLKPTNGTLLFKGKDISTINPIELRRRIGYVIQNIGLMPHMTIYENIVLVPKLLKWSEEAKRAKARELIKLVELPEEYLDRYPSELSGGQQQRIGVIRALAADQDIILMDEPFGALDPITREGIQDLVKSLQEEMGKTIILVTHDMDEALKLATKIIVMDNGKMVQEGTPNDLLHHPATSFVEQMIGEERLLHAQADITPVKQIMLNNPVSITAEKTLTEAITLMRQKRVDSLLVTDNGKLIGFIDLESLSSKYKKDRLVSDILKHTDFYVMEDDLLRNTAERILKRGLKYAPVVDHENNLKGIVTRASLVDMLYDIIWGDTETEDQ
Described as above. The format is binding. To be noted: […]P-c-di-AMP, […] Tris pH […] NaCl, […] MgCl2, room temperature; labelled compound; competition with […] cold nucleotide.

A further series deals with T4, KtrA (Gbs1678) (Streptococcus agalactiae, UniProt Q8E3S8).
T4 construct: full length, N-terminal His or His-MBP tag, expressed in E. coli Bli5, whole-cell extract
T4 sequence (Q8E3S8 1-223): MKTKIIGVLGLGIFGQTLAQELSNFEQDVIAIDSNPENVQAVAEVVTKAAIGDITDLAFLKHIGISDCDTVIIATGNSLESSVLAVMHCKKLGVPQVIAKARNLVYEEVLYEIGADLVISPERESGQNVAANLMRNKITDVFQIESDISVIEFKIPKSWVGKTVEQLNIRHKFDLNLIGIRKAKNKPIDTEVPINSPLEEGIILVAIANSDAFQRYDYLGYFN
The series is described as above. Type of series: binding. To be noted: […]P-c-di-AMP, […] Tris pH […] NaCl, […] MgCl2, room temperature; labelled compound; competition with […] cold nucleotide.

The next series deals with T5, BusR (Gbs1201) (Streptococcus agalactiae, UniProt I7JWA3).
T5 construct: gene BM110_ORF1201; full length (213 aa), N-terminal His or His-MBP tag, expressed in E. coli Bli5, whole-cell extract
T5 sequence (I7JWA3 1-213): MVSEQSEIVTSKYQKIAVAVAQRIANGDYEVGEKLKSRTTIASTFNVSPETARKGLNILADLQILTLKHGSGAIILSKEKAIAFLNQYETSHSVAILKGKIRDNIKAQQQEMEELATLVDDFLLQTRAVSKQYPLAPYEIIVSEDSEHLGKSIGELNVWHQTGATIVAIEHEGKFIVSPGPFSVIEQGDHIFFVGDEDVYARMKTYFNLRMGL
The description is as above. To be noted: 1 nM 32P-c-di-AMP, 40 mM Tris pH 7.5, 100 mM NaCl, 10 mM MgCl2, room temperature; labelled compound; competition with 200 uM cold nucleotide. The format is binding.

Series [1] has as its system T6, BusR (rBusR) (Streptococcus agalactiae NEM316), ORF:6b20ee22.
T6 sequence: T5 sequence (I7JWA3 1-213)
Kind of series: EMSA. To be noted: 25 mM Na2HPO4/NaH2PO4 pH 8, 50 mM NaCl, 2 mM MgCl2, 1 mM DTT, 10% glycerol, 0.1 ug/ul poly(dI-dC), 0.02 ug/ul BSA, 20 min room temperature; 6% PAGE at 4 C. For orientation: In EMSA bound probe runs differently from free probe, usually more slowly.

With `Nc1ncnc2c1ncn2[C@@H]1O[C@@H]2COP(=O)(O)O[C@H]3[C@@H](O)[C@H](n4cnc5c(N)ncnc54)O[C@@H]3COP(=O)(O)O[C@H]2[C@H]1O` [c-di-AMP], the “RP-HPLC of c-di-AMP formation” value at DacA (rDacA) is “the purified recombinant DacA protein produces c-di-AMP from two molecules of ATP”. For the same molecule, the “DRaCALA, 32P-labelled c-di-AMP, whole E. coli extract” value at TrkH (Gbs1639) was “C-di-AMP binds to four proteins: KtrA (Gbs1678), TrkH (Gbs1639)”; on OpuCA (Gbs0235), “C-di-AMP binds to four proteins: KtrA (Gbs1678), TrkH (Gbs1639), OpuCA (Gbs0235)”; at KtrA (Gbs1678) it was “C-di-AMP binds to four proteins: KtrA (Gbs1678)”; on BusR (Gbs1201), “C-di-AMP binds to four proteins: KtrA (Gbs1678), TrkH (Gbs1639), OpuCA (Gbs0235) and Gbs1201”.

Turning to `Nc1ncnc2c1ncn2[C@@H]1O[C@H](COP(=O)(O)OP(=O)(O)OP(=O)(O)O)[C@@H](O)[C@H]1O` [ATP], the “RP-HPLC of c-di-AMP formation” value on DacA (rDacA) is “the purified recombinant DacA protein produces c-di-AMP from two molecules of ATP”.

Turning to “AGTTGTAATATTAATACTAATAAGTCTTTAAATAATTCAATAATGCCATAACAATAATGGTGTGGGCTAATTAAAATATCTCTAAGCAAAGGTGTTGACATAAAGAGACCATACATGATATTATAGTTATGTTCTGTTTCGGCAGTTTATTTTTTTGAGTAAAAAAGTGACTACCCTTTTACGATACTTTAACGTCACTTTATAGATAAGACACATAACCTTAAAAATAAGATACGAAATT (double strand) [PbusAB EMSA fragment (245 bp)]”, the binding entry in series [1] is “binds”.
